# Measurements reported in patent US6274715A, “Tricyclic erythromycin derivatives” (priority 1997, dated 2001).
# Read-outs that look alike come from different tables or passages of the source.
# Experiments:
# Format in all cases: cell-based
# [1] = test system: STAPHYLOCOCCUS AUREUS ATCC 6538P; test: In vitro antibacterial activity, MIC, BHI agar dilution; conditions: S. aureus ATCC 6538P, 35-37° C., 20 to 24 hours, unit assumed
# [2] = test system: STAPHYLOCOCCUS AUREUS A5177; test: as above
# [3] = test system: STAPHYLOCOCCUS AUREUS A-5278; test: as above; conditions: S. aureus A-5278, unit assumed
# [4] = test system: STAPHYLOCOCCUS AUREUS CMX 642A; test: as above; conditions: S. aureus CMX 642A, unit assumed
# [5] = test system: STAPHYLOCOCCUS AUREUS NCTC10649M; test: as above; conditions: S. aureus NCTC10649M
# [6] = test system: STAPHYLOCOCCUS AUREUS CMX 553; test: as above; conditions: S. aureus CMX 553, unit assumed
# [7] = test system: STAPHYLOCOCCUS AUREUS 1775; test: as above; conditions: S. aureus 1775, unit assumed
# [8] = test system: STAPHYLOCOCCUS EPIDERMIDIS 3519; conditions: S. epidermidis 3519; BHI agar; unit assumed
# EN[…] ATCC 8043 = test: In vitro antibacterial activity, MIC, BHI agar dilution
# Experimental: (§1) Representative compounds of the present invention were assayed in vitro for antibacterial activity as follows: Twelve petri dishes containing successive aqueous dilutions of the test compound mixed with 10 mL of sterilized Brain Heart Infusion (BHI) agar (Difco 0418-01-5) were prepared. Each plate was inoculated with 1:100 (or 1:10 for slow-growing strains, such as Micrococcus and Streptococcus) dilutions of up to 32 different microorganisms, using a Steers replicator block. The inoculated plates were incubated at 35-37° C. for 20 to 24 hours. In addition, a control plate, using BHI agar containing no test compound, was prepared and incubated at the beginning and end of each test.
# (§2) An additional plate containing a compound having known susceptibility patterns for the organisms being tested and belonging to the same antibiotic class as the test compound was also prepared and incubated as a further control, as well as to provide test-to-test comparability. Erythromycin A was used for this purpose.
# (§3) After incubation, each plate was visually inspected. The minimum inhibitory concentration (MIC) was defmed as the lowest concentration of drug yielding no growth, a slight haze, or sparsely isolated colonies on the inoculum spot as compared to the growth control.
# M[…] ATCC 4698 = test: as above; conditions: M. luteus ATCC 4698, unit assumed
# Experimental: as §1, §2, §3
# M[…] ATCC 9341 = test: as above
# Experimental: as §1, §2, §3
# STR[…] 508 = test: as above
# Experimental: as §1, §2, §3
# [9] = test system: STREPTOCOCCUS BOVIS A-5169; test: as above; conditions: S. bovis A-5169, unit assumed
# [10] = test system: STREPTOCOCCUS PYOGENES EES61; test: as above; conditions: S. pyogenes EES61, unit assumed
# [11] = test system: STREPTOCOCCUS PYOGENES 930; test: as above
# [12] = test system: STREPTOCOCCUS PYOGENES PIU 2548; test: as above; conditions: S. pyogenes PIU 2548, unit assumed
# ESCHERICHIA COLI SS = test: as above; conditions: E. coli SS, unit assumed
# ESCHERICHIA COLI DC-2 = test: as above; conditions: E. coli DC-2, unit assumed
# ESCHERICHIA COLI H560 = test: as above
# ESCHERICHIA COLI KNK 437 = conditions: unit assumed
# [13] = test system: ENTEROBACTER AEROGENES ATCC 13048; test: In vitro antibacterial activity, MIC, BHI agar dilution
# [14] = test system: KLEBSIELLA PNEUMONIAE ATCC 8045; test: as above; conditions: K. pneumoniae ATCC 8045, unit assumed
# [15] = test system: PROVIDENCIA STUARTII CMX 640; conditions: P. stuartii CMX 640; BHI agar; unit assumed
# [16] = test system: PSEUDOMONAS AERUGINOSA BMH10; test: In vitro antibacterial activity, MIC, BHI agar dilution
# [17] = test system: PSEUDOMONAS AERUGINOSA 5007; test: as above; conditions: P. aeruginosa 5007, unit assumed
# [18] = test system: PSEUDOMONAS AERUGINOSA K799/WT; test: as above; conditions: P. aeruginosa K799/WT
# [19] = test system: PSEUDOMONAS AERUGINOSA K799/61; test: as above
# PSEUDOMONAS CEPACIA 296I = test: as above; conditions: P. cepacia 296I, unit assumed
# [20] = test system: PSEUDOMONAS AERUGINOSA DPHD-5263; test: as above; conditions: P. aeruginosa DPHD-5263, unit assumed
# [21] = test system: PSEUDOMONAS AERUGINOSA DPHD-2862; test: as above; conditions: P. aeruginosa DPHD-2862, unit assumed
# CANDIDA ALBICANS CCH 442 = test: as above; conditions: C. albicans CCH 442, unit assumed
# [22] = test system: MYCOBACTERIUM SMEGMATIS ATCC 114; test: as above; conditions: M. smegmatis ATCC 114, unit assumed
# ESCHERICHIA COLI JUHL = conditions: E. coli JUHL; BHI agar; listed as Ex 39; unit assumed
# [23] = E. faecium ATCC 8043, unit assumed
# [24] = M. luteus ATCC 9341, unit assumed
# [25] = S. agalactiae CMX 508, unit assumed
# [26] = P. aeruginosa BMH10, unit assumed
# [27] = P. aeruginosa K799/61, unit assumed
compound,measurement,setting,value
CC[C@H]1OC(=O)[C@H](C)C(=O)[C@H](C)[C@@H](O[C@@H]2O[C@H](C)C[C@H](N(C)C)[C@H]2O)[C@](C)(OC)C[C@@H](C)C2=NC[C@H](COCc3ccc(OC)cc3)N3C(=O)O[C@@]1(C)[C@H]3[C@H]2C [Example 62],MIC,[1],0.2 µg/mL
same,MIC,"[2]; S. aureus A5177, unit assumed",0.2 µg/mL
same,MIC,[3],> 100 µg/mL
same,MIC,[4],0.2 µg/mL
same,MIC,[5]; unit assumed,0.2 µg/mL
same,MIC,[6],0.2 µg/mL
same,MIC,[7],> 100 µg/mL
same,MIC,[8],0.2 µg/mL
same,MIC,EN[…] ATCC 8043; [23],0.1 µg/mL
same,MIC,M[…] ATCC 4698,0.02 µg/mL
same,MIC,M[…] ATCC 9341; [24],0.01 µg/mL
same,MIC,STR[…] 508; [25],0.1 µg/mL
same,MIC,[9],0.1 µg/mL
same,MIC,[10],0.1 µg/mL
same,MIC,"[11]; S. pyogenes 930, unit assumed",> 100 µg/mL
same,MIC,[12],0.2 µg/mL
same,MIC,ESCHERICHIA COLI SS,0.2 µg/mL
same,MIC,ESCHERICHIA COLI DC-2,50 µg/mL
same,MIC,"ESCHERICHIA COLI H560; E. coli H560, unit assumed",100 µg/mL
same,MIC,"ESCHERICHIA COLI KNK 437; E. coli KNK 437, BHI agar",100 µg/mL
same,MIC,"[13]; E. aerogenes ATCC 13048, unit assumed",25 µg/mL
same,MIC,[14],25 µg/mL
same,MIC,[15],> 100 µg/mL
same,MIC,[16]; [26],100 µg/mL
same,MIC,[17],100 µg/mL
same,MIC,[18]; unit assumed,25 µg/mL
same,MIC,[19]; [27],0.2 µg/mL
same,MIC,PSEUDOMONAS CEPACIA 296I,12.5 µg/mL
same,MIC,[20],50 µg/mL
same,MIC,[21],100 µg/mL
same,MIC,CANDIDA ALBICANS CCH 442,> 100 µg/mL
same,MIC,[22],0.1 µg/mL
CC[C@H]1OC(=O)[C@H](C)C(=O)[C@H](C)[C@@H](O[C@@H]2O[C@H](C)C[C@H](N(C)C)[C@H]2O)[C@](C)(OC)C[C@@H](C)C2=NC[C@@H](Cc3ccccc3)N3C(=O)O[C@@]1(C)[C@H]3[C@H]2C [Example 6],MIC,[1],0.1 µg/mL
same,MIC,[2]; S. aureus A5177,0.05 µg/mL
same,MIC,[3],> 100 µg/mL
same,MIC,[4],0.1 µg/mL
same,MIC,[5]; unit assumed,0.1 µg/mL
same,MIC,[6],0.2 µg/mL
same,MIC,[7],> 100 µg/mL
same,MIC,[8],0.1 µg/mL
same,MIC,EN[…] ATCC 8043; [23],0.1 µg/mL
same,MIC,M[…] ATCC 4698,0.1 µg/mL
same,MIC,M[…] ATCC 9341; [24],0.02 µg/mL
same,MIC,STR[…] 508; [25],0.02 µg/mL
same,MIC,[9],0.01 µg/mL
same,MIC,[10],0.02 µg/mL
same,MIC,"[11]; S. pyogenes 930, unit assumed",> 100 µg/mL
same,MIC,[12],0.39 µg/mL
same,MIC,ESCHERICHIA COLI SS,0.02 µg/mL
same,MIC,"ESCHERICHIA COLI H560; E. coli H560, unit assumed",3.1 µg/mL
same,MIC,ESCHERICHIA COLI KNK 437,6.2 µg/mL
same,MIC,[14],12.5 µg/mL
same,MIC,[15],100 µg/mL
same,MIC,[16]; [26],50 µg/mL
same,MIC,[17],100 µg/mL
same,MIC,[18]; unit assumed,25 µg/mL
same,MIC,[19]; [27],0.39 µg/mL
same,MIC,PSEUDOMONAS CEPACIA 296I,50 µg/mL
same,MIC,[20],12.5 µg/mL
same,MIC,[21],100 µg/mL
same,MIC,CANDIDA ALBICANS CCH 442,> 100 µg/mL
CCC1OC(=O)C(C)C(=O)C(C)C(OC2OC(C)CC(N(C)C)C2O)C(C)(OC)CC(C)C2=NCC(CCc3ccccc3)N3C(=O)OC1(C)C3C2C (stereo not drawn) [Example 39],MIC,[1],0.78 µg/mL
same,MIC,"[2]; S. aureus A5177, unit assumed",0.39 µg/mL
same,MIC,"[5]; listed as Ex 39, unit assumed",0.39 µg/mL
same,MIC,[6],0.39 µg/mL
same,MIC,[8],0.78 µg/mL
same,MIC,"EN[…] ATCC 8043; E. faecium ATCC 8043, listed as Ex 39, unit assumed",0.1 µg/mL
same,MIC,M[…] ATCC 4698,0.2 µg/mL
same,MIC,"M[…] ATCC 9341; M. luteus ATCC 9341, listed as Ex 39, unit assumed",0.1 µg/mL
same,MIC,"STR[…] 508; S. agalactiae CMX 508, listed as Ex 39, unit assumed",0.05 µg/mL
same,MIC,[10],0.01 µg/mL
same,MIC,"[11]; S. pyogenes 930, listed as Ex 39, unit assumed",100 µg/mL
same,MIC,[12],0.2 µg/mL
same,MIC,ESCHERICHIA COLI JUHL,100 µg/mL
same,MIC,ESCHERICHIA COLI SS,0.39 µg/mL
same,MIC,ESCHERICHIA COLI DC-2,100 µg/mL
same,MIC,"ESCHERICHIA COLI H560; E. coli H560, listed as Ex 39, unit assumed",25 µg/mL
same,MIC,"[13]; E. aerogenes ATCC 13048, listed as Ex 39, unit assumed",> 100 µg/mL
same,MIC,"[16]; P. aeruginosa BMH10, listed as Ex 39, unit assumed",50 µg/mL
same,MIC,"[18]; listed as Ex 39, unit assumed",100 µg/mL
same,MIC,"[19]; P. aeruginosa K799/61, listed as Ex 39, unit assumed",1.56 µg/mL
